Measured values: PubChem BioAssay (NCI)
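Where inhibition never reached the appropriate level, the endpoint shown equals the highest concentration tested. Otherwise, values were interpolated linearly from a five-concentration, 48-hour dose response in 96-well plates. Here, GI50 denotes the concentration required for 50% inhibition of growth. TGI is the concentration that stops growth completely.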

Key:
Assay in all cases: growth of human tumour cells (NCI), 48 h
786-0 renal = tested on: 786-0 renal
A498 renal = tested on: A498 renal
A549 NSCLC = tested on: A549 NSCLC
ACHN renal = tested on: ACHN renal
BT-549 breast = tested on: BT-549 breast
CAKI-1 renal = tested on: CAKI-1 renal
CCRF-CEM leukemia = tested on: CCRF-CEM leukemia
COLO 205 colon = tested on: COLO 205 colon
DU-145 prostate = tested on: DU-145 prostate
EKVX NSCLC = tested on: EKVX NSCLC
HCC-2998 colon = tested on: HCC-2998 colon
HCT-116 colon = tested on: HCT-116 colon
HCT-15 colon = tested on: HCT-15 colon
HL-60(TB) leukemia = tested on: HL-60(TB) leukemia
HOP-62 NSCLC = tested on: HOP-62 NSCLC
HOP-92 NSCLC = tested on: HOP-92 NSCLC
HS 578T breast = tested on: HS 578T breast
HT29 colon = tested on: HT29 colon
IGROV1 ovarian = tested on: IGROV1 ovarian
K-562 leukemia = tested on: K-562 leukemia
KM12 colon = tested on: KM12 colon
LOX IMVI melanoma = tested on: LOX IMVI melanoma
M14 melanoma = tested on: M14 melanoma
MALME-3M melanoma = tested on: MALME-3M melanoma
MCF7 breast = tested on: MCF7 breast
MDA-MB-231 breast = tested on: MDA-MB-231 breast
MDA-MB-435 = tested on: MDA-MB-435
MDA-MB-468 breast = tested on: MDA-MB-468 breast
MOLT-4 leukemia = tested on: MOLT-4 leukemia
NCI-H226 lung = tested on: NCI-H226 lung
NCI-H23 lung = tested on: NCI-H23 lung
NCI-H460 lung = tested on: NCI-H460 lung
NCI-H522 lung = tested on: NCI-H522 lung
OVCAR-3 ovarian = tested on: OVCAR-3 ovarian
OVCAR-4 ovarian = tested on: OVCAR-4 ovarian
OVCAR-5 ovarian = tested on: OVCAR-5 ovarian
OVCAR-8 ovarian = tested on: OVCAR-8 ovarian
PC-3 prostate = tested on: PC-3 prostate
RPMI-8226 leukemia = tested on: RPMI-8226 leukemia
RXF 393 renal = tested on: RXF 393 renal
SF-268 CNS = tested on: SF-268 CNS
SF-295 CNS = tested on: SF-295 CNS
SF-539 CNS = tested on: SF-539 CNS
SK-MEL-28 melanoma = tested on: SK-MEL-28 melanoma
SK-MEL-5 melanoma = tested on: SK-MEL-5 melanoma
SK-OV-3 ovarian = tested on: SK-OV-3 ovarian
SN12C renal = tested on: SN12C renal
SNB-19 CNS = tested on: SNB-19 CNS
SNB-75 CNS = tested on: SNB-75 CNS
SR leukemia = tested on: SR leukemia
SW-620 colon = tested on: SW-620 colon
T-47D breast = tested on: T-47D breast
TK-10 renal = tested on: TK-10 renal
U251 CNS = tested on: U251 CNS
UACC-257 melanoma = tested on: UACC-257 melanoma
UACC-62 melanoma = tested on: UACC-62 melanoma
UO-31 renal = tested on: UO-31 renal

Question: `COc1ccc(N2N=C(c3ccc4c(c3)OCO4)CC2c2cccc(NC(=O)CCNS(=O)(=O)c3ccc(Cl)cc3)c2)cc1` (centres undefined) was tested. Which GI50 (786-0 renal) did it give?
Answer: 18.8 µM

Question: What about the TGI (786-0 renal) of the same compound?
Answer: > 100 µM

Question: What about the GI50 (A498 renal) of the same compound?
Answer: 20.6 µM

Question: What about the TGI (A498 renal) of the same compound?
Answer: 48.1 µM

Question: And the GI50 (A549 NSCLC)?
Answer: 42.4 µM

Question: What about the TGI (A549 NSCLC) of the same compound?
Answer: > 100 µM

Question: And the GI50 (ACHN renal)?
Answer: 11.6 µM

Question: And the TGI (ACHN renal)?
Answer: > 100 µM

Question: And the GI50 (BT-549 breast)?
Answer: 3.03 µM

Question: What about the TGI (BT-549 breast) of the same compound?
Answer: 20.3 µM

Question: And the GI50 (CAKI-1 renal)?
Answer: 8.88 µM

Question: And the TGI (CAKI-1 renal)?
Answer: > 100 µM

Question: What about the GI50 (CCRF-CEM leukemia) of the same compound?
Answer: 5.4 µM

Question: And the TGI (CCRF-CEM leukemia)?
Answer: > 100 µM

Question: And the GI50 (COLO 205 colon)?
Answer: 25.1 µM

Question: What about the TGI (COLO 205 colon) of the same compound?
Answer: > 100 µM

Question: What about the GI50 (DU-145 prostate) of the same compound?
Answer: 13.6 µM

Question: And the TGI (DU-145 prostate)?
Answer: > 100 µM

Question: And the GI50 (EKVX NSCLC)?
Answer: 4.36 µM

Question: And the TGI (EKVX NSCLC)?
Answer: > 100 µM

Question: What about the GI50 (HCC-2998 colon) of the same compound?
Answer: 8.75 µM

Question: And the TGI (HCC-2998 colon)?
Answer: > 100 µM

Question: And the GI50 (HCT-116 colon)?
Answer: 9.05 µM

Question: What about the TGI (HCT-116 colon) of the same compound?
Answer: > 100 µM

Question: What about the GI50 (HCT-15 colon) of the same compound?
Answer: 7.25 µM

Question: What about the TGI (HCT-15 colon) of the same compound?
Answer: > 100 µM

Question: What about the GI50 (HL-60(TB) leukemia) of the same compound?
Answer: 25.7 µM

Question: And the TGI (HL-60(TB) leukemia)?
Answer: > 100 µM

Question: And the GI50 (HOP-62 NSCLC)?
Answer: 63.4 µM

Question: And the TGI (HOP-62 NSCLC)?
Answer: > 100 µM

Question: What about the GI50 (HOP-92 NSCLC) of the same compound?
Answer: 8.13 µM

Question: And the TGI (HOP-92 NSCLC)?
Answer: 76.8 µM

Question: What about the GI50 (HS 578T breast) of the same compound?
Answer: 10.6 µM

Question: What about the TGI (HS 578T breast) of the same compound?
Answer: > 100 µM

Question: And the GI50 (HT29 colon)?
Answer: 7.96 µM

Question: What about the TGI (HT29 colon) of the same compound?
Answer: > 100 µM

Question: And the GI50 (IGROV1 ovarian)?
Answer: 39.8 µM

Question: And the TGI (IGROV1 ovarian)?
Answer: > 100 µM

Question: And the GI50 (K-562 leukemia)?
Answer: 3.97 µM

Question: What about the TGI (K-562 leukemia) of the same compound?
Answer: > 100 µM

Question: And the GI50 (KM12 colon)?
Answer: 12 µM

Question: What about the TGI (KM12 colon) of the same compound?
Answer: > 100 µM

Question: What about the GI50 (LOX IMVI melanoma) of the same compound?
Answer: 12.1 µM

Question: What about the TGI (LOX IMVI melanoma) of the same compound?
Answer: > 100 µM

Question: What about the GI50 (M14 melanoma) of the same compound?
Answer: 9.12 µM

Question: What about the TGI (M14 melanoma) of the same compound?
Answer: > 100 µM

Question: And the GI50 (MALME-3M melanoma)?
Answer: 5.42 µM

Question: And the TGI (MALME-3M melanoma)?
Answer: > 100 µM

Question: And the GI50 (MCF7 breast)?
Answer: 4.21 µM

Question: What about the TGI (MCF7 breast) of the same compound?
Answer: > 100 µM

Question: What about the GI50 (MDA-MB-231 breast) of the same compound?
Answer: 8.11 µM

Question: And the TGI (MDA-MB-231 breast)?
Answer: 96 µM

Question: What about the GI50 (MDA-MB-435) of the same compound?
Answer: 14.3 µM

Question: What about the TGI (MDA-MB-435) of the same compound?
Answer: > 100 µM

Question: What about the GI50 (MDA-MB-468 breast) of the same compound?
Answer: 7.03 µM

Question: What about the TGI (MDA-MB-468 breast) of the same compound?
Answer: > 100 µM

Question: And the GI50 (MOLT-4 leukemia)?
Answer: 4.71 µM

Question: What about the TGI (MOLT-4 leukemia) of the same compound?
Answer: > 100 µM

Question: What about the GI50 (NCI-H226 lung) of the same compound?
Answer: 18 µM

Question: What about the TGI (NCI-H226 lung) of the same compound?
Answer: > 100 µM

Question: What about the GI50 (NCI-H23 lung) of the same compound?
Answer: 22.6 µM

Question: What about the TGI (NCI-H23 lung) of the same compound?
Answer: > 100 µM

Question: And the GI50 (NCI-H460 lung)?
Answer: 11.3 µM

Question: And the TGI (NCI-H460 lung)?
Answer: > 100 µM

Question: And the GI50 (NCI-H522 lung)?
Answer: 2.73 µM

Question: And the TGI (NCI-H522 lung)?
Answer: 7.92 µM

Question: What about the GI50 (OVCAR-3 ovarian) of the same compound?
Answer: 47.6 µM

Question: And the TGI (OVCAR-3 ovarian)?
Answer: > 100 µM

Question: And the GI50 (OVCAR-4 ovarian)?
Answer: 19.1 µM

Question: And the TGI (OVCAR-4 ovarian)?
Answer: > 100 µM

Question: What about the GI50 (OVCAR-5 ovarian) of the same compound?
Answer: 51.6 µM

Question: What about the TGI (OVCAR-5 ovarian) of the same compound?
Answer: > 100 µM

Question: What about the GI50 (OVCAR-8 ovarian) of the same compound?
Answer: 82.8 µM

Question: What about the TGI (OVCAR-8 ovarian) of the same compound?
Answer: > 100 µM

Question: And the GI50 (PC-3 prostate)?
Answer: 4.61 µM

Question: And the TGI (PC-3 prostate)?
Answer: > 100 µM

Question: What about the GI50 (RPMI-8226 leukemia) of the same compound?
Answer: 6.44 µM

Question: What about the TGI (RPMI-8226 leukemia) of the same compound?
Answer: > 100 µM

Question: And the GI50 (RXF 393 renal)?
Answer: 4.98 µM

Question: And the TGI (RXF 393 renal)?
Answer: > 100 µM

Question: What about the GI50 (SF-268 CNS) of the same compound?
Answer: 11.6 µM

Question: And the TGI (SF-268 CNS)?
Answer: > 100 µM

Question: And the GI50 (SF-295 CNS)?
Answer: 5.22 µM

Question: What about the TGI (SF-295 CNS) of the same compound?
Answer: 72.2 µM

Question: And the GI50 (SF-539 CNS)?
Answer: 17.5 µM

Question: And the TGI (SF-539 CNS)?
Answer: > 100 µM

Question: And the GI50 (SK-MEL-28 melanoma)?
Answer: 7.37 µM

Question: What about the TGI (SK-MEL-28 melanoma) of the same compound?
Answer: > 100 µM

Question: And the GI50 (SK-MEL-5 melanoma)?
Answer: 22.8 µM

Question: And the TGI (SK-MEL-5 melanoma)?
Answer: > 100 µM

Question: And the GI50 (SK-OV-3 ovarian)?
Answer: 54.7 µM

Question: What about the TGI (SK-OV-3 ovarian) of the same compound?
Answer: > 100 µM

Question: And the GI50 (SN12C renal)?
Answer: 14.4 µM

Question: And the TGI (SN12C renal)?
Answer: > 100 µM

Question: What about the GI50 (SNB-19 CNS) of the same compound?
Answer: 16.4 µM

Question: What about the TGI (SNB-19 CNS) of the same compound?
Answer: > 100 µM

Question: And the GI50 (SNB-75 CNS)?
Answer: 9.46 µM

Question: And the TGI (SNB-75 CNS)?
Answer: > 100 µM

Question: What about the GI50 (SR leukemia) of the same compound?
Answer: 4.68 µM

Question: What about the TGI (SR leukemia) of the same compound?
Answer: > 100 µM

Question: What about the GI50 (SW-620 colon) of the same compound?
Answer: 41.1 µM

Question: And the TGI (SW-620 colon)?
Answer: > 100 µM

Question: What about the GI50 (T-47D breast) of the same compound?
Answer: 7.96 µM

Question: And the TGI (T-47D breast)?
Answer: > 100 µM

Question: And the GI50 (TK-10 renal)?
Answer: 38.6 µM

Question: And the TGI (TK-10 renal)?
Answer: > 100 µM

Question: And the GI50 (U251 CNS)?
Answer: 20.5 µM

Question: What about the TGI (U251 CNS) of the same compound?
Answer: > 100 µM

Question: What about the GI50 (UACC-257 melanoma) of the same compound?
Answer: 77.1 µM

Question: What about the TGI (UACC-257 melanoma) of the same compound?
Answer: > 100 µM

Question: And the GI50 (UACC-62 melanoma)?
Answer: 20.4 µM

Question: What about the TGI (UACC-62 melanoma) of the same compound?
Answer: > 100 µM

Question: And the GI50 (UO-31 renal)?
Answer: 15.6 µM

Question: What about the TGI (UO-31 renal) of the same compound?
Answer: > 100 µM
